Data published in ChEMBL document CHEMBL1201862, “PubChem BioAssay data set” (2004).
Calls of active or inactive are those of the source.

Experiments:
[1] = molecular target: Glyceraldehyde-3-phosphate dehydrogenase (Homo sapiens, UniProt P04406)
[2] = molecular target: T1, Alkaline phosphatase, tissue-nonspecific isozyme (Homo sapiens, UniProt P05186); test: human TNAP enzyme inhibitors, SAR follow-up, biochemical, luminescent, dose response (AID 1056)
T1 sequence (P05186 whole entry): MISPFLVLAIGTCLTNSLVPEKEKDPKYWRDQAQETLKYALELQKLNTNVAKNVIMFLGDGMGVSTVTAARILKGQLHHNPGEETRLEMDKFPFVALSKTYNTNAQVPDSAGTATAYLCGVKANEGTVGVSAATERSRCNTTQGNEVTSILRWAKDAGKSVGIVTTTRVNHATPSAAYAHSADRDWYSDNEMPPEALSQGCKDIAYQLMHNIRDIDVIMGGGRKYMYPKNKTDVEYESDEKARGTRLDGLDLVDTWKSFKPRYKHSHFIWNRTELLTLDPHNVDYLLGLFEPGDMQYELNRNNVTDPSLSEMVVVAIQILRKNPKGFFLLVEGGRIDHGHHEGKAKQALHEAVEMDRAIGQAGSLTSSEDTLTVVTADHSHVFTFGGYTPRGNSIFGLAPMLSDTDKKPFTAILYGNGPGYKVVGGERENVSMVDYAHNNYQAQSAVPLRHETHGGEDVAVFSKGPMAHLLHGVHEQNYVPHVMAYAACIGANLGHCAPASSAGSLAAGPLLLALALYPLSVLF

[3] = molecular target: T2, Ubiquitin-conjugating enzyme E2 N (Homo sapiens, UniProt P61088); type: functional
T2 sequence (P61088 whole entry): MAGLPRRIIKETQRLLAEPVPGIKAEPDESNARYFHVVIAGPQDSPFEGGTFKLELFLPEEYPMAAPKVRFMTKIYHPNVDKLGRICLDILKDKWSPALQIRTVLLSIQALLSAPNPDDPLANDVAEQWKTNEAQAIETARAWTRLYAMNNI

[4] = molecular target: T3, Bcl-2-related protein A1 (Mus musculus, UniProt Q07440); type: functional;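 further: confirmatory dose–response counterscreen on Bfl-1, used to check hits from a UBC13 polyubiquitin inhibitor campaign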
T3 sequence (Q07440 whole entry): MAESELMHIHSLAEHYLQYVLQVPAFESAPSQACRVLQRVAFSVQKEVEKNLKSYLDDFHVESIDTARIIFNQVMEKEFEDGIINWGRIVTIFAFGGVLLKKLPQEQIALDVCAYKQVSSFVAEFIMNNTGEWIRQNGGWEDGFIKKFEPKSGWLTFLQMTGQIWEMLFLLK

[5] = molecular target: T2, Ubiquitin-conjugating enzyme E2 N; type: functional; remark: listed apart in the source
[6] = molecular target: T4, SUMO-activating enzyme (Homo sapiens, UniProt Q9UBT2); test: inhibitors of in vitro SUMOylation cascade, primary screen, biochemical, HTRF, uHTS (AID 2006); type: protein-complex assay
T4 sequence (Q9UBE0 whole entry): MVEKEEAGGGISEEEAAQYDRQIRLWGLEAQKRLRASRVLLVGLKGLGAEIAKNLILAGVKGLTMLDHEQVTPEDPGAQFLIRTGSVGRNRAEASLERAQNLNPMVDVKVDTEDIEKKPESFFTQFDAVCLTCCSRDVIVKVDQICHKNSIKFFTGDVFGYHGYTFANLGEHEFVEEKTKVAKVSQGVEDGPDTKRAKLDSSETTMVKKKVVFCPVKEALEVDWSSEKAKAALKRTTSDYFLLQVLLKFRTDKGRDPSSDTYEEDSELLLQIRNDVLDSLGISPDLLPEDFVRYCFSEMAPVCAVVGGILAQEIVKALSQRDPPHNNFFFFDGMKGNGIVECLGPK
T4 sequence (Q9UBT2 whole entry): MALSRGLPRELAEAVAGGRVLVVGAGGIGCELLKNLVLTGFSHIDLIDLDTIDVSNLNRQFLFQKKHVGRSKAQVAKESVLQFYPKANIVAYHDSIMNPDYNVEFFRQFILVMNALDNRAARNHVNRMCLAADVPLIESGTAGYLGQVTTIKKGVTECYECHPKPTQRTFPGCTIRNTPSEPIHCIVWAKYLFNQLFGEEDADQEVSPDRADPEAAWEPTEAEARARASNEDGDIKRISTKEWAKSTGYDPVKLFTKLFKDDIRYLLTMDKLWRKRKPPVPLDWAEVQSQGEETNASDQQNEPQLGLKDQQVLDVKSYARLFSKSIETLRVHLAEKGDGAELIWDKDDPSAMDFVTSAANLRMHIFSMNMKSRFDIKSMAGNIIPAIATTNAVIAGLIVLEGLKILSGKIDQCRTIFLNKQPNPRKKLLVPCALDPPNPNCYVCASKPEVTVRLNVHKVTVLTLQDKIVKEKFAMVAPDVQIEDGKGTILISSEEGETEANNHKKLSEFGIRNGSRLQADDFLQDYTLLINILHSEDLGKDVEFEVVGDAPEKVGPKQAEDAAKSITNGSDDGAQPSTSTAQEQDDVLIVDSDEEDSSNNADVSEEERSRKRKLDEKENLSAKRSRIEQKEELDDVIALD

[7] = molecular target: T4, SUMO-activating enzyme; test: SUMOylation inhibitor hit validation, confirmation, SUMOylation inhibitor project, biochemical, AlphaScreen (AID 2018); type: functional
[8] = HEp-2 cell cytotoxicity, dose response, cytotoxicity control for RSV inhibitor project, HTS (AID 2410); type: functional; conditions: human respiratory syncytial virus
[9] = molecular target: T5, DNA repair protein RAD52 homolog (Homo sapiens, UniProt P43351); type: functional, biochemical
T5 sequence (P43351 whole entry): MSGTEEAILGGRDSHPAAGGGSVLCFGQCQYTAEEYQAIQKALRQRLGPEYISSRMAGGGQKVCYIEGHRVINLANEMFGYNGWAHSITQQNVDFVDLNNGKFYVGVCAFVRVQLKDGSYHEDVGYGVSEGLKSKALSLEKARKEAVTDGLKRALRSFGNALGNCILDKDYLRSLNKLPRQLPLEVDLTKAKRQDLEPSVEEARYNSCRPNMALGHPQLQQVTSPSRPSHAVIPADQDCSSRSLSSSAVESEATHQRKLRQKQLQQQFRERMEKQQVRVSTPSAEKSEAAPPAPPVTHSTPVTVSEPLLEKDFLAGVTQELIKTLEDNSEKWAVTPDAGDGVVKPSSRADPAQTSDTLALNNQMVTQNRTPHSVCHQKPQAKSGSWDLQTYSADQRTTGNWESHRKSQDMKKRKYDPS

[10] = molecular target: Eukaryotic translation initiation factor 4E (Mus musculus, UniProt P63073); test: eIF4E–eIF4G protein interaction inhibitors, dose response, biochemical, TR-FRET (AID 855); type: functional;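 further: potency for disrupting eIF4E binding to eIF4GI seen as loss of FRET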
Sequence of Eukaryotic translation initiation factor 4E (P63073 whole entry): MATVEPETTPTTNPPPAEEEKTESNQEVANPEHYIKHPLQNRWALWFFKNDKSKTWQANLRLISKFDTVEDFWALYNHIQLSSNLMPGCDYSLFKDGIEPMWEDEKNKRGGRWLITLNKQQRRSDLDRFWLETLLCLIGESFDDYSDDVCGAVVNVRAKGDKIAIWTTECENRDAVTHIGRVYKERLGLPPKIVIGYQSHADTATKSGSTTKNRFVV

[11] = molecular target: T6, Protein RecA (Mycobacterium tuberculosis, UniProt P9WHJ3); test: Fluorescence Cell-Free Homogeneous Dose Retest to Identify Inhibitors of RecA-Intein Splicing Activity. [Related pubchem assays (depositor defined):AID2097, AID2223, AID489010, AID492950]; type: functional
T6 sequence (P9WHJ3 whole entry): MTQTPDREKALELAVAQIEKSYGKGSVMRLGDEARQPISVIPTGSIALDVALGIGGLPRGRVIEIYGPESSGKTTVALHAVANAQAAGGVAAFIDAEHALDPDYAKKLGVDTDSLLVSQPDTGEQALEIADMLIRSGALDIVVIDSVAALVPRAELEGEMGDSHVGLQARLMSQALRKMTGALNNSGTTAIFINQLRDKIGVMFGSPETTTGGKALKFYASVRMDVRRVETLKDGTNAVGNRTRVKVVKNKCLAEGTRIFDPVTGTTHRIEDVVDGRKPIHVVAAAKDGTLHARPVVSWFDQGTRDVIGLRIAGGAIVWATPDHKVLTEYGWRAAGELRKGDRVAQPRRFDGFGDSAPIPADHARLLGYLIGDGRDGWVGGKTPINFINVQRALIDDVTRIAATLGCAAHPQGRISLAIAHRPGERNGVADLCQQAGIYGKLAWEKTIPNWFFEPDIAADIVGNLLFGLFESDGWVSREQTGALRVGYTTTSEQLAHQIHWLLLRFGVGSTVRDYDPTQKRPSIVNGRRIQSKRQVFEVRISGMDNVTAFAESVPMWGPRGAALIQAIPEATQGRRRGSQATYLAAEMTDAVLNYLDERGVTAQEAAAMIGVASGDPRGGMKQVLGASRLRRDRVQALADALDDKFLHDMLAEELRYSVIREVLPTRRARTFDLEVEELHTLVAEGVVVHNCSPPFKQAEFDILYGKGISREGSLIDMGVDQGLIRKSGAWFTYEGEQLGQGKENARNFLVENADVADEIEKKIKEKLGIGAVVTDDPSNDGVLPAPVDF

[12] = molecular target: T7, Replicative DNA helicase DnaB (Mycobacterium tuberculosis, UniProt P9WMR3); test: DnaB intein splicing inhibitors, dose response, biochemical, cell-free fluorescence (AID 449749); type: functional
T7 sequence (P9WMR3 whole entry): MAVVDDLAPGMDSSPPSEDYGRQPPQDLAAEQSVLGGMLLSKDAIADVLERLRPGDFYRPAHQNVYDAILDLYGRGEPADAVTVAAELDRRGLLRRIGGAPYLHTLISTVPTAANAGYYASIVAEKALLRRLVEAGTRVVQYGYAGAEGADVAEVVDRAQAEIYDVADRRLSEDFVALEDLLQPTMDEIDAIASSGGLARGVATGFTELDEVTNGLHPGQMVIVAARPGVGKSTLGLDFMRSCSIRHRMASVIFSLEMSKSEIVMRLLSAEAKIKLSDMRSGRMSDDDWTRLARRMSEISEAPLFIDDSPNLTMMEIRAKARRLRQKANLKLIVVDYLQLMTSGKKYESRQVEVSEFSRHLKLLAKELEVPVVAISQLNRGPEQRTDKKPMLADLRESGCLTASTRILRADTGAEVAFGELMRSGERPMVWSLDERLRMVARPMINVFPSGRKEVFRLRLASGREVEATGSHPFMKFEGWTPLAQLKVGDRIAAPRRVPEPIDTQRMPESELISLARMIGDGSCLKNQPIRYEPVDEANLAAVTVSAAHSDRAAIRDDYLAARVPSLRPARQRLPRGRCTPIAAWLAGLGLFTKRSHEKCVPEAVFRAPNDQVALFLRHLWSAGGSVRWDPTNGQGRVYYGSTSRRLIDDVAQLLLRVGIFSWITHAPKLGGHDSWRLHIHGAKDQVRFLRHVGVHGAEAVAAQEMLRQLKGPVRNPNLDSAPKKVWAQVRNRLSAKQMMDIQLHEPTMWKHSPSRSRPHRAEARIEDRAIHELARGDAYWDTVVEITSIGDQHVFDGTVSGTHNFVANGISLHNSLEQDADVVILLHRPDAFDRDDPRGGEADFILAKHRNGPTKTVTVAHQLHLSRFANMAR

[13] = molecular target: Induced myeloid leukemia cell differentiation protein Mcl-1 (Homo sapiens, UniProt Q07820); type: functional
Sequence of Induced myeloid leukemia cell differentiation protein Mcl-1 (Q07820 whole entry): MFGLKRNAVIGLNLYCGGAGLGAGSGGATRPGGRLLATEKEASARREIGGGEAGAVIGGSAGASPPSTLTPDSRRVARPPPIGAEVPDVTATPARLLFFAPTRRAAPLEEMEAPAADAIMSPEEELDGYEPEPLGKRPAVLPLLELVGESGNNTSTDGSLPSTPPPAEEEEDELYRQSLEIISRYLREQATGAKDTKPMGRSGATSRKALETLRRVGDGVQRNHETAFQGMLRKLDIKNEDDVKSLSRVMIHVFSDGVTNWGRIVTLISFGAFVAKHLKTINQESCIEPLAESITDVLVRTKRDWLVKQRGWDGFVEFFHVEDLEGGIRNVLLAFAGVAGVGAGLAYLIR

[14] = molecular target: T8, Heat shock factor protein 1 (Mus musculus, UniProt P38532); test: HSF1 potentiators in luciferase reporter cells, confirmation, cell-based, NIH3T3, luminescence, dose retest (AID 435004); type: functional;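 further: stress induced by proteasome inhibitor MG132 added 30 min after compound; luciferase reporter driven by HSF1 response element in NIH3T3 cells; actives raise luminescence as potentiators of the MG132 stress response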
T8 sequence (P38532 whole entry): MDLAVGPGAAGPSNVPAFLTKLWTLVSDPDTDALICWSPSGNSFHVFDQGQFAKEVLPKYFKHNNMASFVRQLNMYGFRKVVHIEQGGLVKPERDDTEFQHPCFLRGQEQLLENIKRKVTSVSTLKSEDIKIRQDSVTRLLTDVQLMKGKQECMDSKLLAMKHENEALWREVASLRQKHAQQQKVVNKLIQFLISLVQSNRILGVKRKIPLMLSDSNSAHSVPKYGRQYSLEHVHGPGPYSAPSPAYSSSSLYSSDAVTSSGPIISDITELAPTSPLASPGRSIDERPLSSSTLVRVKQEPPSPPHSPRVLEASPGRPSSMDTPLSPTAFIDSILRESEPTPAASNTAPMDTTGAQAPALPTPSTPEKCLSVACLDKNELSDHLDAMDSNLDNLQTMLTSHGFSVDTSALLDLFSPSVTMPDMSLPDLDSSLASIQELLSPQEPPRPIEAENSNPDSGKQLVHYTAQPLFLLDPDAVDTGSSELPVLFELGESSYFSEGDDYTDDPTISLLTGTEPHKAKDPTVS

[15] = molecular target: T9, Carboxy-terminal domain RNA polymerase II polypeptide A small phosphatase 1 (Homo sapiens, UniProt Q9GZU7); test: inhibitors of CTDSP1, concentration-response testing, biochemical assay, absorbance-based, actives from ultra-high-throughput screening (AID 540297); type: functional
T9 sequence (Q9GZU7 whole entry): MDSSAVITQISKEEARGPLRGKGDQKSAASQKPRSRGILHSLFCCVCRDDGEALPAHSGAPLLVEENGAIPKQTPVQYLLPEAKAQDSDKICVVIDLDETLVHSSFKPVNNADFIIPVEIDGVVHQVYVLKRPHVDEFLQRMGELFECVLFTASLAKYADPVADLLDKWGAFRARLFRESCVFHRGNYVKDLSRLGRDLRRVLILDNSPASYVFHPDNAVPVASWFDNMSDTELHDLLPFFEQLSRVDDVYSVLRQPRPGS

[16] = cells; type: functional, cell-based
[17] = THP-1 cell cytotoxicity, dose response, cytotoxicity control for non-replicating M. tuberculosis project (AID 489025); type: functional
[18] = Vero E6 cell cytotoxicity, dose response, cytotoxicity control for non-replicating M. tuberculosis project, secondary assay (AID 492998); type: functional, VeroE6; conditions: Vero C1008
[19] = HepG2 cell cytotoxicity, dose response, cytotoxicity control for non-replicating M. tuberculosis project (AID 489018); type: functional; conditions: Mycobacterium tuberculosis
[20] = cells; type: functional, cell-based; remark: listed apart in the source

Sequence of Glyceraldehyde-3-phosphate dehydrogenase (P04406 whole entry): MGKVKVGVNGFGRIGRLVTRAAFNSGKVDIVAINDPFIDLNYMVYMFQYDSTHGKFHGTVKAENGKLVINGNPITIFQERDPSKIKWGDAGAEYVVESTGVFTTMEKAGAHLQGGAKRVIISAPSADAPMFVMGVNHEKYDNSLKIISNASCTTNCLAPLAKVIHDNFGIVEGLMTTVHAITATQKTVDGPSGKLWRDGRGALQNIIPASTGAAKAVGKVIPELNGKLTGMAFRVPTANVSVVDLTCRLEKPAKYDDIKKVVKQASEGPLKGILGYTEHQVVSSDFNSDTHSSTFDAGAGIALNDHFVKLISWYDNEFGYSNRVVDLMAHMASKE

SMILES: O=S(=O)(Nc1ccncn1)c1ccccc1
- IC50 [1]: > 100 µM (not active)
- IC50 [2]: > 100 µM (inactive)

SMILES: COc1ccc(Cn2c(SCC(=O)NCc3ccco3)nc3ccsc3c2=O)cc1
- IC50 [3]: 10.4 µM (active)
- IC50 [4]: > 20 µM (inactive)
- IC50 [5]: 14.4 µM (active)

SMILES: Cc1ccccc1C(=O)N1CCN(c2ccc(NC(=S)NC(=O)c3cccs3)cc2)CC1
- IC50 [3]: 10.8 µM (active)
- IC50 [4]: > 20 µM (inactive)
- IC50 [5]: 15.6 µM (active)

SMILES: Cc1ccc(C2=NN(C(=O)CCC(=O)O)C(c3cn(-c4ccccc4)nc3-c3ccc(C)cc3)C2)cc1 (stereo unspecified)
- IC50 [6]: 20.1 µM (active)
- IC50 [7]: 4.8 µM (active)
- CC50 [8]: 24.8 µM (active)

SMILES: COC(=O)c1cc(-c2ccc(OC)cc2)[nH]n1
- IC50 [1]: > 100 µM (not active)
- IC50 [2]: 2.33 µM (active)

SMILES: CN1CCN(CCCNC(=O)c2ccc(/C=C3\Sc4ccccc4N(Cc4ccc(F)cc4)C3=O)cc2)CC1
- AC50 [9]: 8.2 µM (active)
- IC50 [10]: 50 µM (inactive)

SMILES: Nc1ccc(N)c(C(=O)O)c1
- EC50 [11]: 3.76 µM (active)
- IC50 [10]: 13.4 µM (active)
- AC50 [12]: 6.81 µM (active)
- IC50 [13]: 1.59 µM (active)

SMILES: CC(OC(=O)c1cc(-c2ccc(Br)cc2)[nH]n1)C(=O)NC(C)(C)C (stereo unspecified)
- IC50 [1]: > 100 µM (not active)
- IC50 [2]: 19.5 µM (active)

SMILES: CCC(OCC(O)CN1CCN(CCN2C(=O)c3cccc4cccc(c34)C2=O)CC1)c1ccccc1 (stereo unspecified)
- IC50 [3]: 12.4 µM (active)
- IC50 [4]: > 20 µM (inactive)
- IC50 [5]: 9.26 µM (active)

SMILES: O=C(N/N=C/c1ccc([N+](=O)[O-])o1)c1cc2c(ccc3ccccc32)o1
- IC50 [6]: 11 µM (active)
- IC50 [7]: 28.4 µM (active)
- IC50 [10]: 50 µM (inactive)

SMILES: O=C(N/N=C/c1ccc(-c2cccc([N+](=O)[O-])c2)o1)c1ccccc1O
- EC50 [14]: > 260 µM (inactive)
- IC50 [6]: 15.9 µM (active)
- IC50 [7]: 16.3 µM (active)
- IC50 [15]: 3.68 µM (active)

SMILES: O=C(CCc1ccccc1)N/N=C/c1cc(Br)ccc1O
- EC50 [16]: 261 µM (active)
- CC50 [17]: 6.36 µM (active)
- CC50 [18]: 12.3 µM (active)
- CC50 [19]: 13.5 µM (active)
- EC50 [20]: 286 µM (active)
